PMC8301926 (Biomolecules, 2021)

Assays:
[1] = target: T1, human M1 muscarinic acetylcholine receptor (hM1R) (Homo sapiens, UniProt P11229); experiment: M1 (h) functional GPCR assay, antagonist effect, intracellular Ca2+; assay type: cell-based; details: CHO
T1 construct: host or cells: CHO cells

[2] = target: T2, human M5 muscarinic acetylcholine receptor (hM5R) (Homo sapiens, UniProt P08912); experiment: M5 (h) functional GPCR assay, agonist effect, intracellular Ca2+; assay type: cell-based; details: 100 µM; % of control response to 624-nM acetylcholine; RBL cells
T2 construct: host or cells: RBL (rat basophilic leukemic) cells
T2 sequence (P08912 1-532): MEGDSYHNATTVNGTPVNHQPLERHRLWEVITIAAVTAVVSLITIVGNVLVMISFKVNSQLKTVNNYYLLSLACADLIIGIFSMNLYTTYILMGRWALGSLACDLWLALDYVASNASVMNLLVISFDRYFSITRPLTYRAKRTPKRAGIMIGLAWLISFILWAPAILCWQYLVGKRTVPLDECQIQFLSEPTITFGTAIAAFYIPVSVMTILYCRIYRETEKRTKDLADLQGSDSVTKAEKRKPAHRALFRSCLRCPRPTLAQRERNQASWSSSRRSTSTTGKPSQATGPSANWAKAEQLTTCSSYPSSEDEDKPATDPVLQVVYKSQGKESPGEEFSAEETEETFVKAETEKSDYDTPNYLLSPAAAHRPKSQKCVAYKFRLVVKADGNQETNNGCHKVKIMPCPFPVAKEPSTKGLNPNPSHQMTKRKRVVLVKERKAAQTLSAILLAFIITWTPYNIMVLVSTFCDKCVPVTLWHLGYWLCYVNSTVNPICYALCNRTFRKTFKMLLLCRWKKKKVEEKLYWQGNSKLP

[3] = target: T3, human M4 muscarinic acetylcholine receptor (hM4R) (Homo sapiens, UniProt P08173); experiment: M4 (h) functional GPCR assay, agonist effect, cAMP HTRF; assay type: cell-based; details: 100 µM; % of control response to 1-µM acetylcholine; CHO cells
T3 construct: host or cells: CHO cells
T3 sequence (P08173 1-479): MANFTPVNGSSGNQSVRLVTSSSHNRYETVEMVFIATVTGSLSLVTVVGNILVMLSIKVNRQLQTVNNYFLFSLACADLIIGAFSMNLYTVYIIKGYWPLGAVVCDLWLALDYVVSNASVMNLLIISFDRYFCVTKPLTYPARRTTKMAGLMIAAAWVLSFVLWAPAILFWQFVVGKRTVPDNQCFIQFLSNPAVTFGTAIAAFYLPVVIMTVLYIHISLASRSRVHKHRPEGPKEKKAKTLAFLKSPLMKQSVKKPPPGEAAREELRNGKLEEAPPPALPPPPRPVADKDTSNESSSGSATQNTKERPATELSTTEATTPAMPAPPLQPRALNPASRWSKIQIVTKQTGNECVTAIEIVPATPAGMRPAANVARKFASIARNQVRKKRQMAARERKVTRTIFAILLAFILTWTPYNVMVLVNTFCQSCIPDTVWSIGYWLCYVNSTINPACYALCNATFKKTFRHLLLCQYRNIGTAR

[4] = target: T4, human M2 muscarinic acetylcholine receptor (hM2R) (Homo sapiens, UniProt P08172); experiment: M2 (h) functional GPCR assay, agonist effect, cAMP HTRF; assay type: cell-based; details: 100 µM; % of control response to 3-µM acetylcholine; CHO cells
T4 construct: host or cells: CHO cells
T4 sequence (P08172 1-466): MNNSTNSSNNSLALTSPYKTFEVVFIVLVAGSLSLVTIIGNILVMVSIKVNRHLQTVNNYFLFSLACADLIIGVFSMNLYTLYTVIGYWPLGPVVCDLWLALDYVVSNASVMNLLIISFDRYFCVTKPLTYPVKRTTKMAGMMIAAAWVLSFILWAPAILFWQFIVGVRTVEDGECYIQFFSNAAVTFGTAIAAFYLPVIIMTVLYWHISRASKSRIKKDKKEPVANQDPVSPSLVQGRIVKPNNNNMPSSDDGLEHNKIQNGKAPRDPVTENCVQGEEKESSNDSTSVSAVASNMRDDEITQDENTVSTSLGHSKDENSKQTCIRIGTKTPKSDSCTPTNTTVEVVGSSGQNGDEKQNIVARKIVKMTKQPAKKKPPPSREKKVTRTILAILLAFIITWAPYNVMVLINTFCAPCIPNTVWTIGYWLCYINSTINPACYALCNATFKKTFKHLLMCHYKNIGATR

[5] = target: T5, human M3 muscarinic acetylcholine receptor (hM3R) (Homo sapiens, UniProt P20309); experiment: M3 (h) functional GPCR assay, antagonist effect, intracellular Ca2+; assay type: cell-based; details: CHO
T5 construct: host or cells: CHO cells
T5 sequence (P20309 whole entry): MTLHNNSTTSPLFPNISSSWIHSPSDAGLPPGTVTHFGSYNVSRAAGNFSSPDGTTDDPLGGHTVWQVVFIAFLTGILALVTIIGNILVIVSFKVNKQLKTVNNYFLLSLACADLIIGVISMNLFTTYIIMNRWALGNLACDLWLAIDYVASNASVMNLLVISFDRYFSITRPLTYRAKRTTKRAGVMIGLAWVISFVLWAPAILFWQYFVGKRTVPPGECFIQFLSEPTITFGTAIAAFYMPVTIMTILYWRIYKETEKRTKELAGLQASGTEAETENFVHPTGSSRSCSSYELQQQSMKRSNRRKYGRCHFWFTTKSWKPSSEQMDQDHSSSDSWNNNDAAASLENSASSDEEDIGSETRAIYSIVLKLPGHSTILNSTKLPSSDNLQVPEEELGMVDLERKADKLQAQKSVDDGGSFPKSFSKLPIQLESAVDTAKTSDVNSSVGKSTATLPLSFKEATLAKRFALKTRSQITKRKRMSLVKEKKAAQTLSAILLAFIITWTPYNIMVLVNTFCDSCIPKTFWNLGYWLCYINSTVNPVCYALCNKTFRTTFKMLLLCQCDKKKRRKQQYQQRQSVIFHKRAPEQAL

[6] = target: T1, human M1 muscarinic acetylcholine receptor (hM1R); experiment: M1 (h) functional GPCR assay, agonist effect, intracellular Ca2+; assay type: cell-based; details: 100 µM; % of control response to 100-nM acetylcholine; CHO cells
[7] = target: T6, recombinant human monoamine oxidase A (hMAO-A) (Homo sapiens, UniProt P21397); experiment: hMAO-A enzyme kinetics (Lineweaver-Burk, Dixon, secondary plots); assay type: biochemical; details: for Ki: hMAO-A, from secondary plots; for Inhibition Type, hMAO-A: Lineweaver-Burk and Dixon plots
T6 sequence (P21397 1-527): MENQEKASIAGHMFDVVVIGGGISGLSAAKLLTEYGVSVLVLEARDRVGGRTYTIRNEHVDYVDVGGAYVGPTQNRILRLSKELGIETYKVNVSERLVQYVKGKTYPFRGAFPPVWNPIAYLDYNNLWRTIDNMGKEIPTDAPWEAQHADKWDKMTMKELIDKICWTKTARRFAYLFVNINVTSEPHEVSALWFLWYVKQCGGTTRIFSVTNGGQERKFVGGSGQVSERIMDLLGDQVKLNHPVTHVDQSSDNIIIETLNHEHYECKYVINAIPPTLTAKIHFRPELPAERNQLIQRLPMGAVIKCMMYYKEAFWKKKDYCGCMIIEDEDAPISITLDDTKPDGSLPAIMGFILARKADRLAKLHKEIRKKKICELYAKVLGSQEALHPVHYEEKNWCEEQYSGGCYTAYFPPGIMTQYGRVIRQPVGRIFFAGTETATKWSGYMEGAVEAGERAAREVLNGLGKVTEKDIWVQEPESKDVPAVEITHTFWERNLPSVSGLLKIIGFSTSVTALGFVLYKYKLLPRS

[8] = target: T4, human M2 muscarinic acetylcholine receptor (hM2R); experiment: M2 (h) functional GPCR assay, antagonist effect, cAMP HTRF; assay type: cell-based; details: CHO

T1 sequence (P11229 whole entry): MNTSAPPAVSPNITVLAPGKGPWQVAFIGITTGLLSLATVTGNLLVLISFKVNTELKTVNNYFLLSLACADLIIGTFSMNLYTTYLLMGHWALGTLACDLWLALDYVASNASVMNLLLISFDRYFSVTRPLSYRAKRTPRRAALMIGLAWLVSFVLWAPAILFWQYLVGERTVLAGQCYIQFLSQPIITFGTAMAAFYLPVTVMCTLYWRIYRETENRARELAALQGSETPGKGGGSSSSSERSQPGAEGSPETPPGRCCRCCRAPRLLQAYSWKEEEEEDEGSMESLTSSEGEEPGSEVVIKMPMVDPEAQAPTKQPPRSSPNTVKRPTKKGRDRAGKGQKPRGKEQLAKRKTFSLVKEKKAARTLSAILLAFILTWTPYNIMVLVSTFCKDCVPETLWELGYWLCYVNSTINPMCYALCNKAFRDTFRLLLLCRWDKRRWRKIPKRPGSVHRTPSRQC

Q: With `Cc1coc2c1C(=O)C(=O)c1c-2ccc2c(C)cccc12` [Tanshinone I] as the molecule, how does the inhibition at 100 µM [1] read?
A: 13.8 ± 1.98%

Q: What about the “% Stimulation, M5” value [2] of the same molecule?
A: −1.6 ± 0.85%

Q: What about the “% Stimulation, M4” value [3] of the same molecule?
A: −23.5 ± 1.48%

Q: And the “% Stimulation, M2” value [4]?
A: 12.6 ± 3.61%

Q: What about the inhibition at 100 µM [5] of the same molecule?
A: 3.3 ± 11.2%

Q: And the “% Stimulation, M1” value [6]?
A: 2.5 ± 0.21%

Q: And the Ki ([7]; Kic)?
A: 1.69 ± 0.19 µM

Q: And the Ki ([7]; Kiu)?
A: 4.65 ± 0.16 µM

Q: What about the “Inhibition Type, hMAO-A” value [7] of the same molecule?
A: Mixed

Q: What about the “Inhibition Type, hMAO-A” value ([7]; listed as 1) of the same molecule?
A: mixed-mode

Q: And the inhibition at 100 µM [8]?
A: 35.8 ± 4.74%
